Patent US10323036B2 (Nimbus Lakshmi, Inc., priority 2016, dated 2019)
Read-outs that look alike come from different tables or passages of the source.

Target: human TYK2 (JH2domain-pseudokinase) (Homo sapiens (Human), UniProt P29597)
Assay: TYK2 JH2 Domain Binding Assay (KINOMEscan)
Settings: read-out: JH2 Kd
[1] = Table 5, Tyk2 JH2 Domain Binding Assay

Chain of human TYK2 (JH2domain-pseudokinase) (P29597 556-888): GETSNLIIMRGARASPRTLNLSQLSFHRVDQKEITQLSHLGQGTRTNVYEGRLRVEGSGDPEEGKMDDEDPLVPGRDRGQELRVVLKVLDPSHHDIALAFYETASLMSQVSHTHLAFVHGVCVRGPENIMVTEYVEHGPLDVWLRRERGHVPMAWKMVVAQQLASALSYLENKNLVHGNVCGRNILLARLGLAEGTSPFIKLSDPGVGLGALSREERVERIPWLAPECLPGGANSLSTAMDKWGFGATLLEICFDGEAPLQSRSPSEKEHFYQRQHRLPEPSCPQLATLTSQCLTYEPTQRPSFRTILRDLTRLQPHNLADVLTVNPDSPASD

Compound	Kd (Table 4, JH2 binding assay) [nM]	Kd [1] [nM]
COc1c(Nc2cc(NC(=O)C3CC3)nc3[nH]n(C)c(=O)c23)cccc1-c1nc(C)nn1C [Compound I-46, N-(4-((3-(1,3-dimethyl-1H-1,2,4-triazol-5-yl)-2-methoxyphenyl)amino)-2-methyl-3-oxo-2,3-dihydro-1H-pyrazolo[3,4-b]pyridin-6-yl)cyclopropanecarboxamide]	0.5 to 1	
Cn1[nH]c2nc(Nc3ccc(N4CCCCC4)cn3)cc(Nc3ccccc3S(C)(=O)=O)c2c1=O [Compound I-118, 2-methyl-4-((2-(methylsulfonyl)phenyl)amino)-6-((5-(piperidin-1-yl)pyridin-2-yl)amino)-1,2-dihydro-3H-pyrazolo[3,4-b]pyridin-3-one]	> 10	
COCc1ccc(Nc2cc(Nc3ccc(C(=O)N4CCCC4)c(C(F)(F)F)n3)nc3[nH]n(C)c(=O)c23)c(OC)c1 [Compound I-92, 4-((2-methoxy-4-(methoxymethyl)phenyl)amino)-2-methyl-6-((5-(pyrrolidine-1-carbonyl)-6-(trifluoromethyl)pyridin-2-yl)amino)-1,2-dihydro-3H-pyrazolo[3,4-b]pyridin-3-one]	0.1 to 0.5	
Cc1cc(Nc2cc(Nc3ccccc3S(C)(=O)=O)c3c(=O)n(C)[nH]c3n2)nc(C)n1 [Compound I-108, 6-((2,6-dimethylpyrimidin-4-yl)amino)-2-methyl-4-((2-(methylsulfonyl)phenyl)amino)-1,2-dihydro-3H-pyrazolo[3,4-b]pyridin-3-one]	0.1 to 0.5	
COc1c(Nc2cc(NC(=O)C3CC3)ncc2-c2noc(CO)n2)cccc1-c1ncn(C)n1 [VIII-9, N-(5-(5-(hydroxymethyl)-1,2,4-oxadiazol-3-yl)-4-((2-methoxy-3-(1-methyl-1H-1,2,4-triazol-3-yl)phenyl)amino)pyridin-2-yl)cyclopropanecarboxamide]		> 100
COc1c(Nc2cc(NC(=O)C3CC3)ncc2-c2ccon2)cccc1-c1nnn(C)n1 [VIII-8, N-(5-(isoxazol-3-yl)-4-((2-methoxy-3-(2-methyl-2H-tetrazol-5-yl)phenyl)amino)pyridin-2-yl)cyclopropanecarboxamide]		> 100
COc1c(F)cccc1Nc1cc(Nc2ccc(C(F)F)c(C#N)n2)nc2[nH]n(C)c(=O)c12 [Compound I-191, 3-(difluoromethyl)-6-((4-((3-fluoro-2-methoxyphenyl)amino)-2-methyl-3-oxo-2,3-dihydro-1H-pyrazolo[3,4-b]pyridin-6-yl)amino)picolinonitrile]	> 10	
CCn1cc(-c2cccc(-c3nnn(C)n3)c2OC)c2cc(NC(=O)C3CC3)ncc21 [XVI-6, N-(1-ethyl-3-(2-methoxy-3-(2-methyl-2H-tetrazol-5-yl)phenyl)-1H-pyrrolo[2,3-c]pyridin-5-yl)cyclopropanecarboxamide]		10 to 100
COCc1ccnc(Nc2cc(Nc3cccc(C(N)=O)c3OC)c3c(=O)n(C)[nH]c3n2)c1 [Compound I-126, 2-methoxy-3-((6-((4-(methoxymethyl)pyridin-2-yl)amino)-2-methyl-3-oxo-2,3-dihydro-1H-pyrazolo[3,4-b]pyridin-4-yl)amino)benzamide]	> 10	
COc1c(Nc2cc(Nc3cncc(C#N)n3)nc3[nH]n(C)c(=O)c23)cccc1-c1nnn(C)n1 [Compound I-64, 6-((4-((2-methoxy-3-(2-methyl-2H-tetrazol-5-yl)phenyl)amino)-2-methyl-3-oxo-2,3-dihydro-1H-pyrazolo[3,4-b]pyridin-6-yl)amino)pyrazine-2-carbonitrile]	< 0.1	
COc1c(F)cccc1Nc1cc(Nc2cccc(C#N)n2)nc2[nH]n(C)c(=O)c12 [Compound I-81, 6-((4-((3-fluoro-2-methoxyphenyl)amino)-2-methyl-3-oxo-2,3-dihydro-1H-pyrazolo[3,4-b]pyridin-6-yl)amino)picolinonitrile]	0.1 to 0.5	
COc1c(Nc2cc(Nc3ccn(C)n3)nc3[nH]n(C)c(=O)c23)cccc1-c1nnn(C)n1 [Compound I-13, 4-((2-methoxy-3-(2-methyl-2H-tetrazol-5-yl)phenyl)amino)-2-methyl-6-((1-methyl-1H-pyrazol-3-yl)amino)-1,2-dihydro-3H-pyrazolo[3,4-b]pyridin-3-one]	< 0.1	
COCc1ccc(Nc2cc(NC(=O)C3CC3)nc3[nH]n(C)c(=O)c23)c(OC)c1 [Compound I-45, N-(4-((2-methoxy-4-(methoxymethyl)phenyl)amino)-2-methyl-3-oxo-2,3-dihydro-1H-pyrazolo[3,4-b]pyridin-6-yl)cyclopropanecarboxamide]	1 to 10	
Cc1cc(Nc2cc(Nc3ccc(Cl)cc3S(C)(=O)=O)c3c(=O)n(C)[nH]c3n2)nc(C)n1 [Compound I-199, 4-((4-chloro-2-(methylsulfonyl)phenyl)amino)-6-((2,6-dimethylpyrimidin-4-yl)amino)-2-methyl-1,2-dihydro-3H-pyrazolo[3,4-b]pyridin-3-one]	0.1 to 0.5	
COCc1ccc(Nc2cc(Nc3ccc(C)c(C(F)(F)F)n3)nc3[nH]n(C)c(=O)c23)c(OC)c1 [Compound I-93, 4-((2-methoxy-4-(methoxymethyl)phenyl)amino)-2-methyl-6-((5-methyl-6-(trifluoromethyl)pyridin-2-yl)amino)-1,2-dihydro-3H-pyrazolo[3,4-b]pyridin-3-one]	1 to 10	
COc1c(Cl)cccc1Nc1cc(Nc2cc3n(n2)CCOC3)nc2[nH]n(C)c(=O)c12 [Compound I-221, 4-((3-chloro-2-methoxyphenyl)amino)-6-((6,7-dihydro-4H-pyrazolo[5,1-c][1,4]oxazin-2-yl)amino)-2-methyl-1,2-dihydro-3H-pyrazolo[3,4-b]pyridin-3-one]	0.1 to 0.5	
COc1c(Nc2cc(Nc3cc(CO)ccn3)nc3[nH]n(C)c(=O)c23)cccc1-c1ncn(C)n1 [Compound I-19, 6-((4-(hydroxymethyl)pyridin-2-yl)amino)-4-((2-methoxy-3-(1-methyl-1H-1,2,4-triazol-3-yl)phenyl)amino)-2-methyl-1,2-dihydro-3H-pyrazolo[3,4-b]pyridin-3-one]	1 to 10	
COc1c(Nc2cc(N)nc3[nH]n(C)c(=O)c23)cccc1C(=O)O [Compound I-241, 3-((6-amino-2-methyl-3-oxo-2,3-dihydro-1H-pyrazolo[3,4-b]pyridin-4-yl)amino)-2-methoxybenzoic acid]	> 10	
COC1CN(c2cccc(Nc3cc(Nc4ccccc4S(C)(=O)=O)c4c(=O)n(C)[nH]c4n3)n2)C1 [Compound I-140, 6-((6-(3-methoxyazetidin-1-yl)pyridin-2-yl)amino)-2-methyl-4-((2-(methylsulfonyl)phenyl)amino)-1,2-dihydro-3H-pyrazolo[3,4-b]pyridin-3-one]	1 to 10	
CN(c1cc(C2CCC2)ccc1Nc1cc(NC(=O)[C@@H]2C[C@@H]2F)nc2[nH]n(C)c(=O)c12)S(C)(=O)=O [Compound I-236, (1S,2S)-N-(4-((4-cyclobutyl-2-(N-methylmethylsulfonamido)phenyl)amino)-2-methyl-3-oxo-2,3-dihydro-1H-pyrazolo[3,4-b]pyridin-6-yl)-2-fluorocyclopropane-1-carboxamide]	> 10	
COc1c(Nc2cc(NC(=O)C3CC3)nc3[nH]n(C)c(=O)c23)ccc(C(=O)N2CCCC2)c1F [Compound I-141]	1 to 10	
Cc1ccc(Nc2cc(Nc3ccccc3S(C)(=O)=O)c3c(=O)n(C)[nH]c3n2)nc1 [Compound I-111, 2-methyl-6-((5-methylpyridin-2-yl)amino)-4-((2-(methylsulfonyl)phenyl)amino)-1,2-dihydro-3H-pyrazolo[3,4-b]pyridin-3-one]	0.1 to 0.5	
Cn1[nH]c2nc(Nc3ccc(C#N)cn3)cc(Nc3ccccc3S(C)(=O)=O)c2c1=O [Compound I-139, 6-((2-methyl-4-((2-(methylsulfonyl)phenyl)amino)-3-oxo-2,3-dihydro-1H-pyrazolo[3,4-b]pyridin-6-yl)amino)nicotinonitrile]	0.1 to 0.5	
COc1c(Cl)cccc1Nc1cc(Nc2ccc(C(=O)N3CCOCC3)c(C(F)(F)F)n2)nc2[nH]n(C)c(=O)c12 [Compound I-130, 4-((3-chloro-2-methoxyphenyl)amino)-2-methyl-6-((5-(morpholine-4-carbonyl)-6-(trifluoromethyl)pyridin-2-yl)amino)-1,2-dihydro-3H-pyrazolo[3,4-b]pyridin-3-one]	0.1 to 0.5	
COc1c(F)cccc1Nc1cc(Nc2ccc(C)cn2)nc2[nH]n(C)c(=O)c12 [Compound I-84, 4-((3-fluoro-2-methoxyphenyl)amino)-2-methyl-6-((5-methylpyridin-2-yl)amino)-1,2-dihydro-3H-pyrazolo[3,4-b]pyridin-3-one]	1 to 10	
COc1c(F)cccc1Nc1cc(Nc2ccc(N3CCOCC3)cn2)nc2[nH]n(C)c(=O)c12 [Compound I-89, 4-((3-fluoro-2-methoxyphenyl)amino)-2-methyl-6-((5-morpholinopyridin-2-yl)amino)-1,2-dihydro-3H-pyrazolo[3,4-b]pyridin-3-one]	1 to 10	
COc1c(Nc2cc(NC(=O)C3CC3)nc3[nH]n(C)c(=O)c23)cccc1-n1nc(C)c(C)n1 [Compound I-149]	> 10	
COc1c(F)cccc1Nc1cc(Nc2cc(C)nc(C)n2)nc2[nH]n(C)c(=O)c12 [Compound I-74, 6-((2,6-dimethylpyrimidin-4-yl)amino)-4-((3-fluoro-2-methoxyphenyl)amino)-2-methyl-1,2-dihydro-3H-pyrazolo[3,4-b]pyridin-3-one]	0.1 to 0.5	
Cc1ccc(Nc2cc(Nc3ccc(Cl)cc3S(C)(=O)=O)c3c(=O)n(C)[nH]c3n2)nn1 [Compound I-157, 4-((4-chloro-2-(methylsulfonyl)phenyl)amino)-2-methyl-6-((6-methylpyridazin-3-yl)amino)-1,2-dihydro-3H-pyrazolo[3,4-b]pyridin-3-one]	0.5 to 1	
Cn1[nH]c2nc(Nc3cccc(C#N)n3)cc(Nc3ccc(Cl)cc3S(C)(=O)=O)c2c1=O [Compound I-203, 6-((4-((4-chloro-2-(methylsulfonyl)phenyl)amino)-2-methyl-3-oxo-2,3-dihydro-1H-pyrazolo[3,4-b]pyridin-6-yl)amino)picolinonitrile]	0.5 to 1	
